Read-outs that look alike come from different tables or passages of the source.
Tests used:
healthy mice = settings: cited from earlier work
male Wistar rats = assay: Object Location Task (OLT), learning and memory improvement in vivo; set-up: species or system rat; settings: for memory performance, discrimination index (d2), compared with chance level (d2=0): one-sample t-test; for memory performance, discrimination index (d2), compared to the vehicle condition: one-way ANOVA, LSD t-tests; for dose with the most prominent effect in the memory test: object location task, rats, dose does not decrease blood pressure
Excerpt: Therefore, the well accepted Object Location Task (OLT) in rats was used. This task allows the assessment of acquisition, consolidation and retrieval of (spatial) information into memory, and is derived from the Object Recognition Task (ORT) (e.g. Ennaceur and Delacour, 1988; Prickaerts et al., 1997).
All experimental procedures were approved by the local ethical committee of Maastricht University for animal experiments and met governmental guidelines. […] The animals were housed individually in a standard IVC cage system on sawdust bedding in an air-conditioned room (about 20° C.). They were kept under a reversed 12/12 h light/dark cycle (lights on from 19.00 to 07.00) and had free access to food and water. Rats were housed and tested in the same room. A radio, which was playing softly, provided background noise in the room. All testing was done between 09.00 and 17.00.
The test compounds were freshly prepared on every experimental day and were dissolved in 0.5% Tylose solution (98% of the end volume) with 2% Tween80.
The order of the treatments was balanced to prevent the data from being distorted by potential object- and side-preferences of the animals.
The Object Location Task (OLT) was derived from the Object Recognition Test (ORT) (Ennaceur and Delacour, 1988). The OLT is a one-trial learning task which allows the assessment of spatial memory, and was performed as described elsewhere (Bruno et al., 2011, Vanmierlo et al., 2011). In the first (learning) trial a rat is put into an arena in which two identical objects are placed. After a certain delay, the rat is given a second trial. In this second trial the rat is again placed in the same arena but now one of the objects has been moved to a different position within the area. In other words, a new spatial arrangement is being used.
The apparatus consisted of a circular arena, 83 cm in diameter. The back-half of the 40 cm high arena wall was made of gray polyvinyl chloride, the front-half consisted of transparent polyvinyl chloride. The light intensity was equal in the different parts of the apparatus, as fluorescent red tubes provided a constant illumination of about 20 lux on the floor of the apparatus. In the first (learning) trial (T1), two objects were placed in a symmetrical position on a distance of about 10 cm from the wall of the left- and the right-side of the arena. In the second (test) trial (T2), one object is moved to a new location which is about 20 cm higher or lower than the original positon. Four different sets of objects were used. The different objects were: 1) a cone consisting of a gray polyvinyl chloride base (maximal diameter 18 cm) with a collar on top made of aluminum (total height 16 cm), 2) a standard 1 L brown glass bottle (diameter 10 cm, height 22 cm) filled with water, 3) a massive metal cube (10.0×5.0×7.5 cm) with two holes (diameter 1.9 cm), and 4) a solid aluminum cube with a tapering top (13.0×8.0×8.0 cm). Rats were unable to displace the objects.
A testing session consisted of two trials. The duration of each trial was 3 min. During the first trial (T1) the apparatus contained two identical objects. Rats were placed in the apparatus facing the wall at the middle of the front (transparent) segment. After the first exploration period the rat was put back in its home cage. Subsequently, after a 24 h delay interval, the rat was put in the apparatus for the second trial (T2). The total time an animal spent exploring each object during T1 and T2 was recorded manually with a personal computer.
Exploration was defined as follows: directing the nose to the object at a distance of no more than 2 cm and/or touching the object with the nose. Sitting on the object was not considered as exploratory behavior. A minimal amount of object interaction is required in order to achieve reliable object discrimination, therefore rats that explore less than 7 s in T1 and/or 9 s in T2 should be excluded from the analyses (Akkerman et al., 2012).

normotensive Wistar rats = assay: Measurement of arterial blood pressure in vivo by radiotelemetry in conscious rats; set-up: species or system rat; settings: over 24 hours; for effect on mean arterial blood pressure (MAP) over the dose range: all tested doses compared to vehicle
Experimental: Adult normotensive Wistar rats (Wistar HSD CPB:WU) with a body weight of 250 to 350 g were used for these experimental studies. All animals were housed in individual cages at 22-24° C. ambient temperature and maintained on a 12-hour light/dark cycle with free access to standard laboratory rat chow and water ad libitum. All animal experiments were done in accordance to the current national legislation (German protection of animals act and the EU directives on the protection of animals used for scientific purposes). All performed studies were approved by the regional regulatory authority (LANUV NRW in Germany) and by the institutional animal care and use committee of Bayer AG.
Blood pressure is monitored in freely moving conscious rats by radiotelemetry by a telemetric system (DSI Data Science International, MN, USA). A transmitters (TAI1PA-C40) is implanted in the abdomen of the rat during deep anaesthesia. After recovery of the rats, telemetric signals are registered by a receiver plate (RA1010) and compiled by a computer-based acquisition software (Dataquest A.R.T 4.1 for Windows).
After shaving the abdominal wall of the rat, a midline abdominal incision was made, and the fluid-filled sensor catheter was inserted upstream into the exposed descending aorta between the iliac bifurcation and the renal arteries. According to the DSI guidelines the tip of the telemetric catheter was located just caudal to the renal arteries and secured by tissue adhesive. The transmitter body was affixed to the inner peritoneal wall before closure of abdomen. A two-layer closure of the abdominal incision was used, with individual suturing of the peritoneum and the muscle wall followed by closure of the outer skin. Surgery was performed under aseptic conditions. For postsurgical protection against infections and pain a single dosage of an antibiotic (Oxytetracyclin® 10%, 60 mg/kg s.c., 0.06 ml/100 g body weight, Beta-Pharma GmbH & Co, Germany) and analgesic were injected (Rimadyl®, 4 mg/kg s.c., Pfizer, Germany).
After activation of the implanted transmitters, A.R.T., an on-line data acquisition system, samples data and converts telemetric pressure signals to mm Hg. A barometric pressure reference allows for relation of absolute pressure (relative to vacuum) to ambient atmospheric pressure. Data acquisition software was predefined to sample hemodynamic data for 10-s intervals every 5 minutes. Data collection to file was started 2 hours (T=−2 hours) before drug administration (T=0 hours) and finished after completion of 24 hours (T=24 hours).
Data are expressed as % of baseline values. The baseline value for each animal was calculated and represents the mean blood pressure of the 2 hour period (T=−2 hours to T=0 hours) before the administration of drug or vehicle. For further analysis data were grouped to provide mean for every 0.5 hours. The means of all values obtained for each individual during the period indicated were averaged for each day. Groups were compared by one-way ANOVA with Dunnet's test.
All animals were treated with single oral doses of vehicle or the compound in different dosages (e.g. 0.3, 1.0, 3.0, or 10.0 mg/kg). Application volume was 2 ml/kg body weight. The experiment started at 7:00 a.m. (T=−2 hours), vehicle or drug administration took place at 9.00 a.m. (=0 hours) and registration period was 24 hours. For analysis, data were grouped to provide half-hourly averages.

[1] = 0.1 mg/kg p.o. 30 min before T1, 24 h interval
[2] = 0.3 mg/kg p.o. 30 min before T1, 24 h interval
[3] = 1.0 mg/kg p.o. 30 min before T1, 24 h interval

## COC(=O)N(C)c1c(N)nc(-c2nn(Cc3ccccc3F)c3ncccc23)nc1N [Riociguat]
Healthy mice; higher doses 0.1-0.3 mg/kg
  spatial memory: no significant effect
Healthy mice; lower dose 0.01 mg/kg
  spatial memory: no significant effect
Healthy mice; single dose of 0.03 mg/kg
  spatial memory: able to enhance spatial memory

## C[C@H]([C@H](C(=O)Nc1cc(C(CC(=O)O)C2CC2)ccc1Cl)c1ccc(Cl)cc1)C(F)(F)F (stereo partly drawn) [compound of formula (1), 3-(4-chloro-3-{[(2S,3R)-2-(4-chlorophenyl)-4,4,4-trifluoro-3-methylbutanoyl]amino}phenyl)-3-cyclopropylpropanoic acid]
Male Wistar rats; 0.03 mg/kg p.o. 30 min before T1, 24 h interval
  memory performance, discrimination index (d2), compared with chance level (d2=0): improved memory performance
Male Wistar rats; [1]
  memory performance, discrimination index (d2), compared with chance level (d2=0): improved memory performance
  memory performance, discrimination index (d2), compared to the vehicle condition: significant higher memory performance
Male Wistar rats; [2]
  memory performance, discrimination index (d2), compared with chance level (d2=0): improved memory performance
  memory performance, discrimination index (d2), compared to the vehicle condition: significant higher memory performance
Male Wistar rats; [3]
  memory performance, discrimination index (d2), compared with chance level (d2=0): improved memory performance
  memory performance, discrimination index (d2), compared to the vehicle condition: significant higher memory performance
Male Wistar rats
  dose with the most prominent effect in the memory test: 0.3 mg/kg
Normotensive Wistar rats; 1.0 mg/kg single oral dose
  mean arterial blood pressure (MAP) compared to vehicle: no significant decrease
Normotensive Wistar rats; 3.0 mg/kg single oral dose
  mean arterial blood pressure (MAP) compared to vehicle: no significant decrease
Normotensive Wistar rats; 10.0 mg/kg single oral dose
  mean arterial blood pressure (MAP) compared to vehicle: significantly lowered
Normotensive Wistar rats
  effect on mean arterial blood pressure (MAP) over the dose range: dose-dependent effect

## O=C(O)CCCCN(CCc1cc(F)ccc1OCc1ccc(-c2ccc(C(F)(F)F)cc2)cc1)Cc1ccc(C(=O)O)cc1 [compound of formula (2), 4-({(4-carboxybutyl)[2-(5-fluoro-2-{[4′-(trifluoromethyl)[1,1′-biphenyl]-4-yl]methoxy}phenyl)ethyl]amino}methyl)benzoic acid]
Male Wistar rats; [1]
  memory performance, discrimination index (d2), compared with chance level (d2=0): improved memory performance
Male Wistar rats; [2]
  memory performance, discrimination index (d2), compared with chance level (d2=0): improved memory performance
  memory performance, discrimination index (d2), compared to the vehicle condition: significant higher memory performance
Male Wistar rats; [3]
  memory performance, discrimination index (d2), compared with chance level (d2=0): improved memory performance
  memory performance, discrimination index (d2), compared to the vehicle condition: significant higher memory performance

## COC(=O)Nc1c(N)nc(-c2nn(Cc3ccccc3F)c3ncc(F)cc23)nc1N [compound of formula (5), methyl{4,6-diamino-2-[5-fluoro-1-(2-fluorobenzyl)-1H-pyrazolo[3,4-b]pyridine-3-yl]pyrimidin-5-yl}carbamate]
Male Wistar rats; [1]
  memory performance, discrimination index (d2), compared with chance level (d2=0): improved memory performance
Male Wistar rats; [2]
  memory performance, discrimination index (d2), compared with chance level (d2=0): improved memory performance
  memory performance, discrimination index (d2), compared to the vehicle condition: significant higher memory performance
Male Wistar rats; [3]
  memory performance, discrimination index (d2), compared with chance level (d2=0): improved memory performance
  memory performance, discrimination index (d2), compared to the vehicle condition: significant higher memory performance
Male Wistar rats
  dose with the most prominent effect in the memory test: 0.3 mg/kg
Normotensive Wistar rats; 0.3 mg/kg single oral dose
  mean arterial blood pressure (MAP) compared to vehicle: no significant decrease
Normotensive Wistar rats; 1.0 mg/kg single oral dose
  mean arterial blood pressure (MAP) compared to vehicle: significantly lowered
Normotensive Wistar rats; 3.0 mg/kg single oral dose
  mean arterial blood pressure (MAP) compared to vehicle: significantly lowered
Normotensive Wistar rats
  effect on mean arterial blood pressure (MAP) over the dose range: dose-dependent effect
